In PubChem BioAssay (NCI):
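The concentration for 50% growth inhibition is given as GI50. TGI: concentration producing complete growth inhibition.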

Tests used:
Test in all cases: NCI anticancer screen, dose series, 384-well format
786-0 renal = test system: 786-0 renal
A498 renal = test system: A498 renal
A549 NSCLC = test system: A549 NSCLC
ACHN renal = test system: ACHN renal
BT-549 breast = test system: BT-549 breast
CAKI-1 renal = test system: CAKI-1 renal
CCRF-CEM leukemia = test system: CCRF-CEM leukemia
COLO 205 colon = test system: COLO 205 colon
DU-145 prostate = test system: DU-145 prostate
EKVX NSCLC = test system: EKVX NSCLC
HCC-2998 colon = test system: HCC-2998 colon
HCT-116 colon = test system: HCT-116 colon
HCT-15 colon = test system: HCT-15 colon
HL-60(TB) leukemia = test system: HL-60(TB) leukemia
HOP-62 NSCLC = test system: HOP-62 NSCLC
HOP-92 NSCLC = test system: HOP-92 NSCLC
HS 578T breast = test system: HS 578T breast
HT29 colon = test system: HT29 colon
IGROV1 ovarian = test system: IGROV1 ovarian
K-562 leukemia = test system: K-562 leukemia
KM12 colon = test system: KM12 colon
LOX IMVI melanoma = test system: LOX IMVI melanoma
M14 melanoma = test system: M14 melanoma
MALME-3M melanoma = test system: MALME-3M melanoma
MCF7 breast = test system: MCF7 breast
MDA-MB-231 breast = test system: MDA-MB-231 breast
MDA-MB-435 melanoma = test system: MDA-MB-435 melanoma
MDA-MB-468 breast = test system: MDA-MB-468 breast
MOLT-4 leukemia = test system: MOLT-4 leukemia
NCI-H226 lung = test system: NCI-H226 lung

For `Cc1cc(C(=O)Nc2nc3cccc(Cl)c3n2[C@@H]2CCCCN(C(=O)/C=C/CN(C)C)C2)ccn1`, the GI50 ([…]-0 renal) was 2.98 µM, the TGI (786-0 renal) was 13.1 µM and the GI50 (A498 renal) was 1.45 µM. It also gave a TGI (A498 renal) of 10.8 µM, a GI50 (A549 NSCLC) of 2.49 µM and a TGI (A549 NSCLC) of 13.6 µM. The GI50 (ACHN renal) was 1.48 µM, the TGI (ACHN renal) was 12.5 µM and the GI50 (BT-549 breast) was 2.66 µM. For the same molecule, the TGI (BT-549 breast) was 9.69 µM, the GI50 (CAKI-1 renal) was 1.44 µM and the TGI (CAKI-1 renal) was 14.8 µM. The GI50 (CCRF-CEM leukemia) was 1.56 µM, the TGI (CCRF-CEM leukemia) was 2.98 µM and the GI50 (COLO 205 colon) was 4.23 µM. It also gave a TGI (COLO 205 colon) of 15.6 µM, a GI50 (DU-145 prostate) of 2.34 µM and a TGI (DU-145 prostate) of 13.6 µM. The GI50 (EKVX NSCLC) was 0.648 µM, the TGI (EKVX NSCLC) was 3.73 µM and the GI50 (HCC-2998 colon) was 2.44 µM. The TGI (HCC-2998 colon) was 6.43 µM, the GI50 (HCT-116 colon) was 3.17 µM and the TGI (HCT-116 colon) was 10.9 µM. For the same molecule, the GI50 (HCT-15 colon) was 2.73 µM, the TGI (HCT-15 colon) was 10.7 µM and the GI50 (HL-60(TB) leukemia) was 1.49 µM. For the same molecule, the TGI (HL-60(TB) leukemia) was 2.82 µM, the GI50 (HOP-62 NSCLC) was 1.93 µM and the TGI (HOP-62 NSCLC) was 5.59 µM. The GI50 (HOP-92 NSCLC) was 2.93 µM, the TGI (HOP-92 NSCLC) was 13.9 µM and the GI50 (HS 578T breast) was 1.62 µM. It also gave a TGI (HS 578T breast) of 6.37 µM, a GI50 (HT29 colon) of 4.41 µM and a TGI (HT29 colon) of 16.1 µM. For the same molecule, the GI50 (IGROV1 ovarian) was 0.697 µM, the TGI (IGROV1 ovarian) was 2.79 µM and the GI50 (K-562 leukemia) was 3.03 µM. It also gave a TGI (K-562 leukemia) of 12.4 µM, a GI50 (KM12 colon) of 3.36 µM and a TGI (KM12 colon) of 12.5 µM. The GI50 (LOX IMVI melanoma) was 2.24 µM, the TGI (LOX IMVI melanoma) was 5.51 µM and the GI50 (M14 melanoma) was 2.75 µM. The TGI (M14 melanoma) was 11.5 µM, the GI50 (MALME-3M melanoma) was 2.76 µM and the TGI (MALME-3M melanoma) was 10.8 µM. It also gave a GI50 (MCF7 breast) of 2.51 µM, a TGI (MCF7 breast) of 11.3 µM and a GI50 (MDA-MB-231 breast) of 4.34 µM. For the same molecule, the TGI (MDA-MB-231 breast) was 17 µM, the GI50 (MDA-MB-435 melanoma) was 3.35 µM and the TGI (MDA-MB-435 melanoma) was 12.3 µM. It also gave a GI50 (MDA-MB-468 breast) of 0.111 µM, a TGI (MDA-MB-468 breast) of 0.507 µM and a GI50 (MOLT-4 leukemia) of 1.4 µM. For the same molecule, the TGI (MOLT-4 leukemia) was 2.72 µM and the GI50 (NCI-H226 lung) was 3.39 µM.
